Test results as given in publication PMC4421842 (Nature Communications, 2015).
In brackets after ≈: the same amount, converted by molar mass. Several values for one entry are separate records, joined by “and”; a condition that tells them apart may be missing. Equal values may be shown once. Entries after “also recorded” stand apart in the source; their conditions may differ. Read-outs that look alike come from different tables or passages of the source.

Key:
WT E. coli DNA gyrase = target: T1, WT E. coli DNA gyrase (Escherichia coli, UniProt P0AES4+P0AES6); assay type: biochemical; conditions: DNA cleavage assay
T1 construct: His tag (pTRCHisA vector; purified on Ni-NTA); made in house; host or cells: E. coli One Shot BL21 Star (DE3)

VRE clinical isolates = experiment: MIC, VRE clinical isolates panel (summary by GyrA mutation); assay type: cell-based, Enterococcus; conditions: for MIC: Enterococcus, VRE
Text: (§1) MRSA and P. aeruginosa isolates were from Cubist Pharmaceuticals (Lexington, MA). VRE isolates were from a previously published collection. E. coli strains were obtained either from ATCC or Professor Cari Vanderpool (UIUC). A. baumannii isolates were obtained from Dr John Quale[51].
(§2) Mueller Hinton (MH) broth was used.

physchem = conditions: pH 7.4
Protocol: Three independent replicates of each compound were performed.

P. aeruginosa = experiment: MIC, microdilution broth, P. aeruginosa; assay type: cell-based
Summary of the method: (§3)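 Minimum inhibitory concentrations were determined by broth microdilution in Mueller Hinton broth against clinical isolates.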

[1] = system: resistant strains of ATCC 29213; experiment: microbe, parasite or virus in culture; assay type: cell-based, S. aureus; conditions: Staphylococcus aureus
A. baumannii = experiment: MIC, microdilution broth, A. baumannii; assay type: cell-based
Summary of the method: as §3

S83R E. coli DNA gyrase = target: T2, S83R E. coli DNA gyrase (Escherichia coli, UniProt P0AES4+P0AES6, S83R); assay type: biochemical; conditions: DNA cleavage assay
T2 construct: His tag (pTRCHisA vector; purified on Ni-NTA); made in house; host or cells: E. coli One Shot BL21 Star (DE3)

E. coli = experiment: microbe, parasite or virus in culture; assay type: cell-based; conditions: Escherichia coli, ATCC25922, E. coli ATCC 25922; gyrA none, parC none
Summary of the method: as §3

[2] = Pharmacokinetic assessment; assay type: in vivo, C57BL/6 mice; conditions: for Cmax: female, C57BL/6, mouse
Protocol: (§4) The animal studies (PK, in-vivo toxicity and in-vivo efficacy) were carried out in strict accordance with the recommendations in the Guide for the Care and Use of Laboratory Animals of the National Institutes of Health. […] In these studies, 10- to 12-week-old female C57BL/6 mice purchased from Charles River were used. DNM, DNM-2 and DNM-3 were formulated as slurries at 8.3 mg ml^−1 in 25% Cremophor RH40/water (v/v). Before beginning the pharmacokinetic assessment, mice were first tested for their ability to tolerate the DNM, DNM-2 and DNM-3 at 50 mg kg^−1 (p.o.). […] At specified time points, mice were killed and blood was collected, centrifuged and the serum was frozen at −80 °C until analysis. The proteins in a 50-μl aliquot of serum were precipitated by the addition of 50 μl of acetonitrile and the sample was centrifuged to remove the proteins. Serum concentrations of DNM, DNM-2 and DNM-3 were determined by HPLC. PK parameters were determined using GraphPad Prism Version 5.00 for Windows.

[3] = system: WT S. aureus (ATCC 29213, WT); experiment: microbe, parasite or virus in culture; assay type: cell-based; conditions: WT GyrA and WT ParC, three independent replicates
MRSA clinical isolates = experiment: microbe, parasite or virus in culture; assay type: cell-based, S. aureus; conditions: for MIC: Staphylococcus aureus, MRSA
Summary of the method: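 Broth microdilution per CLSI guidelines in Mueller Hinton broth, run in triplicate against clinical MRSA isolates.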

[4] = Tolerability in mice (maximal tolerated dose); assay type: in vivo
Protocol: as §4

[5] = system: normal (that is, non-cancerous) cell lines; parameters: method as in PMID 10993200; conditions: previously published data; cited from earlier work
E. faecium = experiment: microbe, parasite or virus in culture; assay type: cell-based; conditions: Enterococcus faecium, E. faecium
S. aureus (ATCC 29213) = experiment: Resistant mutant generation (resistance frequency); assay type: cell-based; conditions: development of DNM resistance in high-level CIP-resistant strains
E. faecalis = experiment: microbe, parasite or virus in culture; assay type: cell-based; conditions: E. faecalis
Ent. Spp. = experiment: MIC, microdilution broth, Ent. Spp. VRE clinical isolate; assay type: cell-based; conditions: Enterococcus, C28036, gyrA Ser83Ile, parC Ser80Ile
Text: as §1, §2

Structure (SMILES): Cc1cc(=O)n(C)c2c3c4c(cc12)c(C)cc(=O)n4CO3 [DNM, deoxynybomycin]
- inhibition of WT DNA gyrase (increase in L or OC DNA) (WT E. coli DNA gyrase): poor inhibitors of WT DNA gyrase
- MIC (VRE clinical isolates; VRE harbouring the S83I mutation in GyrA): 0.125 to 1 µg/mL (≈ 0.443 to 3.54 µM)
- MIC (VRE clinical isolates; VRE with the S83R mutation in GyrA): ≥ 1 µg/mL
- Sensitivity of VRE clinical isolates (VRE clinical isolates; panel of VRE clinical isolates (n=22)): sensitive
- solubility at 1 h (physchem): 9 µM (≈ 2.54 µg/mL)
- activity against wild-type (WT) or FQR P. aeruginosa (P. aeruginosa): no detectable activity
- MIC (P. aeruginosa; PA1586 (CIP resistant clinical isolate)): > 4 µg/mL
- MIC (P. aeruginosa; Pseudomonas aeruginosa, P. aeruginosa PAO1, read-out: MIC): > 4 µg/mL
- MIC (P. aeruginosa; Pseudomonas aeruginosa, read-out: MIC): > 4 µg/mL
- MIC ([1]; ATCC29213, high-level CIP-resistant strains, second step, S84L mutation in GyrA): 0.03 to 0.06 µg/mL (≈ 0.106 to 0.213 µM)
- MIC ([1]; ATCC29213, low-level CIP-resistant strains, first step, WT gyrA, mutation in ParC (for example E84K or S80F)): > 1 µg/mL
- MIC ([1]; ATCC29213, resistance cycle strain, WT gyrA, WT parC (Fig. 4a)): > 1 µg/mL
- activity against wild-type (WT) or FQR Acinetobacter baumannii (A. baumannii): no detectable activity
- MIC (A. baumannii; A. baumannii KB304, gyrA S83L): > 4 µg/mL
- MIC (A. baumannii; Acinetobacter baumannii): > 4 µg/mL
- MIC (A. baumannii; Acinetobacter baumannii, ATCC19606, A. baumannii ATCC 19606, read-out: MIC): > 4 µg/mL
- inhibition of S83R DNA gyrase (S83R E. coli DNA gyrase): buildup of OC DNA similar to that seen with S83L DNA gyrase only at a slightly higher concentration or longer time points
- MIC (E. coli): > 4 µg/mL
- Cmax ([2]; C57/BL6 mice, 50 mg kg-1 oral gavage, serum, read-out: Cmax): < 60 ng/mL
- Cmax ([2]; mice, 50 mg kg^−1 oral dose, serum, read-out: Cmax (peak serum concentration)): < 200 nM
- oral bioavailability / serum exposure ([2]; mice, 50 mg kg^−1 oral dose): very low serum exposure; also recorded: not absorbed to any appreciable degree
- Cmax (peak serum concentration) ([2]; mice, 50 mg kg^−1 oral dose, serum): < 60 ng/mL
- MIC against S. aureus 29213 ([3]; ATCC 29213): modest activity and 2 μg ml^−1
- MIC ([3]; Staphylococcus aureus, ATCC29213, ATCC 29213, read-out: MIC against S. aureus 29213): > 1 µg/mL
- MIC (MRSA clinical isolates; strain SAU.1118, read-out: MIC): 1 µg/mL (≈ 3.54 µM)
- MIC (MRSA clinical isolates; strain SAU.2996, read-out: MIC): 0.25 µg/mL (≈ 0.886 µM)
- MIC (MRSA clinical isolates; strain SAU.3017, read-out: MIC): 1 µg/mL (≈ 3.54 µM)
- MIC (MRSA clinical isolates; strain SAU.3021, read-out: MIC): 0.031 µg/mL (≈ 0.11 µM)
- MIC (MRSA clinical isolates; strain SAU.3025, read-out: MIC): 0.031 µg/mL (≈ 0.11 µM)
- MIC (MRSA clinical isolates; strain SAU.419, read-out: MIC): 0.125 µg/mL (≈ 0.443 µM)
- MIC (MRSA clinical isolates; strain SAU.42, read-out: MIC): 1 µg/mL (≈ 3.54 µM)
- MIC (MRSA clinical isolates; strain SAU.446, read-out: MIC): 0.25 µg/mL (≈ 0.886 µM)
- MIC (MRSA clinical isolates; strain SAU.447): 0.063 µg/mL (≈ 0.223 µM)
- MIC (MRSA clinical isolates; strain SAU.492, gyrA Ser84Leu, parC Ser80Tyr): 0.063 µg/mL (≈ 0.223 µM)
- MIC (MRSA clinical isolates; strain SAU.493, gyrA Ser84Leu, parC Ser80Phe): 0.063 µg/mL (≈ 0.223 µM)
- MIC (MRSA clinical isolates; strain SAU.494, gyrA Ser84Leu, parC Ser80Phe): 0.063 µg/mL (≈ 0.223 µM)
- MIC (MRSA clinical isolates; strain SAU.495, gyrA Ser84Leu, parC Ser80Phe): 0.063 µg/mL (≈ 0.223 µM)
- MIC (MRSA clinical isolates; strain SAU.496, gyrA Ser84Leu, parC Ser80Phe): 0.063 µg/mL (≈ 0.223 µM)
- MIC (MRSA clinical isolates; strain SAU.555, read-out: MIC): 0.125 µg/mL (≈ 0.443 µM)
- MIC (MRSA clinical isolates; strain SAU.708, gyrA Ser84Leu, parC Ser80Phe Glu84Lys): 0.063 µg/mL (≈ 0.223 µM)
- MIC (MRSA clinical isolates; strain SAU.709, gyrA Ser84Leu, parC Ser80Tyr Glu84Gly): 0.063 µg/mL (≈ 0.223 µM)
- MIC (MRSA clinical isolates; strain SAU.846, read-out: MIC): 0.031 µg/mL (≈ 0.11 µM)
- Sensitivity of MRSA clinical isolates (MRSA clinical isolates; panel of MRSA clinical isolates (n=21)): sensitive
- tolerability ([4]; increasing doses, highest dose evaluated 50 mg kg^−1 by oral gavage): well tolerated up to the highest dose evaluated
- maximal tolerated dose ([4]; oral gavage): > 50 mg/kg
- toxicity to normal (non-cancerous) cell lines [5]: non-toxic
- MIC (E. faecium; C21190, gyrA Ser83 Arg, parC Ser80Ile): > 1 µg/mL
- MIC (E. faecium; C27282, gyrA Ser83 Arg, parC Ser80Arg): > 1 µg/mL
- MIC (E. faecium; S34, gyrA Ser83Ile, parC Ser80 Arg): 1 µg/mL (≈ 3.54 µM)
- MIC (E. faecium; S226, gyrA Ser83Ile, parC Ser80Ile): 0.25 µg/mL (≈ 0.886 µM)
- MIC (E. faecium; S235, gyrA Ser83Ile, parC Ser80Ile): 0.125 µg/mL (≈ 0.443 µM)
- MIC (E. faecium; S344, gyrA Ser83Ile, parC Ser80Ile): 0.25 µg/mL (≈ 0.886 µM)
- MIC (E. faecium; S557, gyrA Ser83Ile, parC Ser80Ile): 0.25 µg/mL (≈ 0.886 µM)
- MIC (E. faecium; U63, gyrA Ser83 Arg, parC Ser80Ile): 1 µg/mL (≈ 3.54 µM)
- MIC (E. faecium; U275, gyrA Ser83Cys Glu87Gly, parC Ser80Ile): 1 µg/mL (≈ 3.54 µM)
- MIC (E. faecium; U464, gyrA Ser83 Arg, parC Ser80Ile): 1 µg/mL (≈ 3.54 µM)
- MIC (E. faecium; U503, gyrA Ser83 Arg, parC Ser80Ile): > 1 µg/mL
- MIC (E. faecium; U563, gyrA Ser83 Arg, parC Ser80Ile): > 1 µg/mL
- resistance frequencies (S. aureus (ATCC 29213)): 1 × 10^−10 to 7 × 10^−10
- MIC (E. faecalis; ATCC 29212, gyrA WT, parC WT): > 1 µg/mL
- MIC (E. faecalis; Enterococcus faecalis, ATCC19433, ATCC 19433, gyrA WT, parC WT): > 1 µg/mL
- MIC (E. faecalis; Enterococcus faecalis, ATCC29212, ATCC 29212, gyrA WT, parC WT): > 1 µg/mL
- MIC (E. faecalis; Enterococcus faecalis, S206, gyrA Ser83 Arg, parC Ser80Ile): 1 µg/mL (≈ 3.54 µM)
- MIC (Ent. Spp.): 0.25 µg/mL (≈ 0.886 µM)
